Assay results reported in article PMC8900595 (Journal of medicinal chemistry, 2021).

Each compound was assayed on A/WSN/33 (assay: microbe, parasite or virus in culture). Conditions: not given.
Format: cell-based, influenza A virus
With Cc1ccccc1NS(=O)(=O)c1cc(Cl)ccc1Cl [compound 2, 2,5-Dichloro-N-(o-tolyl)benzenesulfonamide] the “antiviral activity as described in SAR text” value (shortened to “antiviral activity”) was “substantially diminished activity”. For Cc1ccccc1N(C)S(=O)(=O)c1cc(Cl)ccc1Cl [compound 3, 2,5-Dichloro-N-methyl-N-(o-tolyl)benzenesulfonamide], the “antiviral activity” value was “substantially diminished activity”. In the case of C=CCN(c1ccccc1C)S(=O)(=O)c1cc(Cl)ccc1Cl [compound 4, N-Allyl-2,5-dichloro-N-(o-tolyl)benzenesulfonamide], the selectivity index is reported as greater than 42. In the case of CCN(c1c(F)cc(Cl)cc1F)S(=O)(=O)c1cc(Cl)ccc1Cl [compound 23, 2,5-Dichloro-N-(4-chloro-2,6-difluorophenyl)-N-ethylbenzenesulfonamide], the “antiviral activity” value is reported as “less active” and the selectivity index is reported as greater than 12. In the case of CCN(c1ccc(F)cc1F)S(=O)(=O)c1ccccc1 [compound 30, N-(2,4-Difluorophenyl)-N-ethylbenzenesulfonamide], the “antiviral activity” value is reported as “inactive”. In the case of CCN(c1ccc(F)cc1F)S(=O)(=O)c1ccccc1Cl [compound 31, 2-Chloro-N-(2,4-difluorophenyl)-N-ethylbenzenesulfonamide], the “antiviral activity” value is reported as “inactive”. For CCN(c1ccc(F)cc1F)S(=O)(=O)c1cccc(Cl)c1 [compound 32, 3-Chloro-N-(2,4-difluorophenyl)-N-ethylbenzenesulfonamide], the “antiviral activity” value was “maintained activity” and the “lower level of activity than 21” value was 10 fold. CCN(c1ccc(F)cc1F)S(=O)(=O)c1ccc(Cl)cc1Cl [compound 33, 2,4-Dichloro-N-(2,4-difluorophenyl)-N-ethylbenzenesulfonamide] was tested, and the “antiviral activity” value was “inactive”. For CCN(c1ccc(F)cc1F)S(=O)(=O)c1cc(Cl)cc(Cl)c1 [compound 34, 3,5-Dichloro-N-(2,4-difluorophenyl)-N-ethylbenzenesulfonamide], the “less active than 1–55” value was greater than 10 fold. For CCN(c1ccc(F)cc1F)S(=O)(=O)c1c(Cl)cccc1Cl [compound 35, 2,6-Dichloro-N-(2,4-difluorophenyl)-N-ethylbenzenesulfonamide], the “antiviral activity” value was “inactive”. With CCN(c1ccc(F)cc1F)S(=O)(=O)c1ccc(Cl)c(Cl)c1 [compound 36, 3,4-Dichloro-N-(2,4-difluorophenyl)-N-ethylbenzenesulfonamide] the “antiviral activity” value was “inactive”. With CCN(c1ccc(F)cc1F)S(=O)(=O)c1cccc(Cl)c1Cl [compound 37, 2,3-Dichloro-N-(2,4-difluorophenyl)-N-ethylbenzenesulfonamide] the “antiviral activity” value was “inactive”.

These compounds were tested on A549 cells (assay: not given). Conditions: human.
In the case of Cc1ccccc1NS(=O)(=O)c1cc(Cl)ccc1Cl [compound 2, 2,5-Dichloro-N-(o-tolyl)benzenesulfonamide], the “Cytotoxicity (MTT) CC10” value is reported as greater than 5 µM. In the case of Cc1ccccc1N(C)S(=O)(=O)c1cc(Cl)ccc1Cl [compound 3, 2,5-Dichloro-N-methyl-N-(o-tolyl)benzenesulfonamide], the “Cytotoxicity (MTT) CC10” value is reported as greater than 5 µM. In the case of C=CCN(c1ccccc1C)S(=O)(=O)c1cc(Cl)ccc1Cl [compound 4, N-Allyl-2,5-dichloro-N-(o-tolyl)benzenesulfonamide], the “Cytotoxicity (MTT) CC10” value is reported as greater than 5 µM. For CCN(c1ccc(CC(=O)O)cc1)S(=O)(=O)c1cc(Cl)ccc1Cl [compound 25, 2-(4-((2,5-Dichloro-N-ethylphenyl)sulfonamido)phenyl)acetic Acid], the “Cytotoxicity (MTT) CC10” value was greater than 25 µM. In the case of CCN(c1ccc(CCO)cc1)S(=O)(=O)c1cc(Cl)ccc1Cl [compound 26, 2,5-Dichloro-N-ethyl-N-(4-(2-hydroxyethyl)phenyl)-benzenesulfonamide], the “Cytotoxicity (MTT) CC10” value is reported as greater than 25 µM. With CCN(c1ccc(CCN)cc1)S(=O)(=O)c1cc(Cl)ccc1Cl [compound 27, N-(4-(2-Aminoethyl)phenyl)-2,5-dichloro-N-ethylbenzenesulfonamide] the “Cytotoxicity (MTT) CC10” value was greater than 25 µM. CCN(c1ccc(CCNC(C)=O)cc1)S(=O)(=O)c1cc(Cl)ccc1Cl [compound 28, N-(4-((2,5-Dichloro-N-ethylphenyl)sulfonamido)phenethyl)-acetamide] was tested, and the “Cytotoxicity (MTT) CC10” value was greater than 25 µM. For CCN(c1ccc(CC(=O)N2CCN(C)CC2)cc1)S(=O)(=O)c1cc(Cl)ccc1Cl [compound 29, 2,5-Dichloro-N-ethyl-N-(4-(2-(4-methylpiperazin-1-yl)-2-oxoethyl)phenyl)benzenesulfonamide], the “Cytotoxicity (MTT) CC10” value was greater than 25 µM.
